We go through seven molecules from paper PMC11411213 (Journal of Molecular Cell Biology, 2024).

Like-named read-outs stand apart in the source and are kept apart here.

Common to all, as to format: cell-based
For assay [1], the system named is SARS-CoV-2 Omicron variant.
Assay [2] concerns SARS-CoV-2 Wuhan variant.
Assay [3] has as its system SARS-CoV-2 Wuhan variant. Briefly: microbe, parasite or virus in culture.
In assay [4] the test system is SARS-CoV-2 D614G variant.
For assay [5], the system named is SARS-CoV-2 Alpha variant. The experiment in a line: microbe, parasite or virus in culture.
The subject of assay [6] is SARS-CoV-2 Delta variant. The experiment in a line: microbe, parasite or virus in culture.
[7] abbreviates: Severe acute respiratory syndrome coronavirus 2, Calu-3.

On to `N[C@@H](CCC(=O)N[C@@H](CS)C(=O)NCC(=O)O)C(=O)O` [GSH, glutathione], for which the “antiviral activity after a single replication cycle (viral titre, in words)” value (from here on “antiviral activity”) in assay [1] is given as “effective against the Omicron variant”; in assay [2], “strong antiviral activity”.

A word on the IC50: it is the concentration needed to halve the response being measured. As to `O=C(O)c1cc(/N=N/c2ccc(S(=O)(=O)Nc3ccccn3)cc2)ccc1O` [Sulfasalazine], the entries for the “SI (selectivity index)” value in assay [3], in assay [5] and in assay [6] were greater than 20.51, greater than 23.87 and greater than 20.82, respectively. Moreover, the IC50 was determined as 24400 ± 5370 nM in assay [3] (setting [7]), 20000 ± 2070 nM in assay [4], 20900 ± 4230 nM in assay [5] (setting [7]) and 24000 ± 3200 nM in assay [6] (setting [7]).

For `COc1cc(Nc2ncc(F)c(Nc3ccc4c(n3)NC(=O)C(C)(C)O4)n2)cc(OC)c1OC` [Tamatinib], the IC50 in assay [3] (setting [7]) was found to be 103 ± 2.7 nM; in assay [4] it was 115 ± 6.77 nM; in assay [5] (setting [7]), 82.95 ± 0.68 nM; in assay [6] (setting [7]), 99.2 ± 1.4 nM. Further, the “SI (selectivity index)” value is 69.20 in assay [5] and 57.84 in assay [6].

As to `COc1cc2c(Nc3ccc(Br)cc3F)ncnc2cc1OCC1CCN(C)CC1` [Vandetanib], the “SI (selectivity index)” value stood at 96.46 in assay [3], 123.55 in assay [5] and 72.91 in assay [6]. For the same molecule, the IC50 in assay [3] (setting [7]) stood at 38.9 ± 2.4 nM; in assay [4], 33.4 ± 2.72 nM; in assay [5] (setting [7]) it was 30.4 ± 1.54 nM; in assay [6] (setting [7]), 51.5 ± 5.55 nM.

For MKI-1, the 50% inhibitory concentration (IC50) was determined as 46.5 ± 1.8 nM in assay [3] (read-out: IC50), 46.4 ± 0.82 nM in assay [4], 31.7 ± 4.18 nM in assay [5] (read-out: IC50) and 48.4 ± 2.07 nM in assay [6] (read-out: IC50).

For N-acetyl cysteine [NAC], the “antiviral activity” value in assay [1] was “effective against the Omicron variant”; in assay [2], “strong antiviral activity”. In addition, the IC50 in assay [3] (read-out: IC50) turned out to be 549000 nM.

As for imidazole ketone erastin [IKE], the results for the “antiviral activity” value in assay [1] and in assay [2] were “effective against the Omicron variant” and “strong antiviral activity”, respectively. Further, the IC50 in assay [3] (read-out: IC50) stood at 99 ± 8.12 nM; in assay [4] it was 88.5 ± 105 nM; in assay [5] (read-out: IC50) it was 79.9 ± 4.11 nM; in assay [6] (read-out: IC50), 113 ± 3.71 nM.
